The Ki is the dissociation constant of the complex between target and ligand, obtained from inhibition or displacement. Low values mean higher affinity, high ones lower affinity.

The nature of the assay: Binding affinity against human Alpha-1b adrenergic receptor.
`O=C(c1nc(-c2c[nH]c3ccccc23)c[nH]1)c1c[nH]c2cc(O)ccc12`: the inhibition constant (Ki) was 1150 nM.
`Brc1ccc2c(-c3c[nH]c(-c4c[nH]c5cc(Br)ccc45)n3)c[nH]c2c1` [Nortopsentin A] registered a Ki of 520 nM.
Next, `Brc1ccc2c(-c3nc(-c4c[nH]c5ccccc45)c[nH]3)c[nH]c2c1` [Nortopsentin B]: 130 nM.
The compound `Brc1ccc2c(-c3c[nH]c(-c4c[nH]c5ccccc45)n3)c[nH]c2c1` [Nortopsentin C] registered a Ki of 170 nM.
Consider `O=C(c1nc(-c2c[nH]c3cc(Br)ccc23)c[nH]1)c1c[nH]c2cc(O)ccc12` [topsentin B2], for which the affinity, expressed as Ki, was 740 nM.

For the origin of these results see BindingDB's records for doi:10.1016/0960-894X(96)00376-9 (1996).
